33 molecules from paper PMC4884984, “Identification of approved and investigational drugs that inhibit hypoxia-inducible factor-1 signaling” (Oncotarget, 2016) can be followed below.

What is called IC50 is the concentration at which inhibition is half-maximal.

Format in all cases: cell-based, human
One assay deals with HIF-1α–NanoLuc. Kind of assay: HIF-1α–NanoLuc reporter gene assay (qHTS primary and confirmatory screens). A general note: In a reporter assay the amount or activity of a reporter protein is the signal.
For assay [1], the system named is hypoxia response element-beta-lactamase (HRE–bla). Kind of assay: HRE-bla reporter gene assay in ME-180 cells. Particulars: for Effect on HRE–bla transcriptional activity, in words: ME-180 cells.
Procedure: (§1) Cell culture of HRE–bla ME-180 cells (Cat. No. K1644, Life Technologies) and HRE–bla assay were conducted according to a reported protocol [6]. […] The fluorescence signals (460/25 nm and 530/20 nm) of CCF4 and luminescence signals of CellTiter-Glo were acquired on an Envision and a ViewLux plate readers (Perkin Elmer), respectively.
The next assay concerns HRE–bla ME-180 cells. Kind of assay: Viability (BLA): CellTiter-Glo counter screen in HRE–bla cells. Particulars: Table S7, 1% O2, 18 h.
Setting [2] is: Table S2, validation, read-out: Pathway inhibitors (validation) HIF-1α–NanoLuc Activity IC50.
Where [3] appears, read: Homo sapiens, Table S1, primary screen, hypoxia 1% O2, 18 h, read-out: IC50 (primary screen, HIF-1α–NanoLuc assay).
The mark [4] stands for this setting: Homo sapiens, Table S1, primary screen, read-out: Efficacy (primary screen, HIF-1α–NanoLuc assay).
Where [5] appears, read: Homo sapiens, Table S2, validation, read-out: Pathway inhibitors (validation) HIF-1α–NanoLuc Activity Efficacy.
Setting [6] is: Homo sapiens, Table S2, validation, read-out: Pathway inhibitors (validation) HIF-1α–NanoLuc Activity IC50.
The mark [7] stands for this setting: Homo sapiens, 18 h, read-out: IC50 (primary screen, HIF-1α–NanoLuc assay).
Where [8] appears, read: Homo sapiens, read-out: Efficacy (primary screen, HIF-1α–NanoLuc assay).
Where [9] appears, read: Homo sapiens, Table S2, primary screen, read-out: Pathway inhibitors (primary screen) HIF-1α–NanoLuc Activity Efficacy.
Where [10] appears, read: Homo sapiens, Table S2, primary screen, read-out: Pathway inhibitors (primary screen) HIF-1α–NanoLuc Activity IC50.

“Also recorded” adds a separate entry of the source. Where two headings read alike, the source gives them in different places.

Procedure for HRE–bla ME-180 cells: as §1

As to `COc1cc([C@@H]2c3cc4c(cc3[C@H](O)[C@H]3COC(=O)[C@@H]23)OCO4)cc(OC)c1OC` [Picropodphyllin], in the assay with HIF-1α–NanoLuc (Table S2, primary screen), the “Pathway inhibitors (primary screen) HIF-1α–NanoLuc Activity Efficacy” value was 159%. For the same molecule, the concentration for half-maximal inhibition (IC50) turned out to be 0.53 µM in the assay on HIF-1α–NanoLuc (Table S2, primary screen, read-out: Pathway inhibitors (primary screen) HIF-1α–NanoLuc Activity IC50) and 0.53 µM with HIF-1α–NanoLuc (setting [2]). Besides, the “Pathway inhibitors (validation) HIF-1α–NanoLuc Activity Efficacy” value in the assay with HIF-1α–NanoLuc (Table S2, validation) was 159%.

Turning to `COc1cccc2c1C(=O)c1c(O)c3c(c(O)c1C2=O)C[C@@](O)(C(=O)CO)C[C@@H]3O[C@H]1C[C@H](N)[C@@H](O)[C@H](C)O1` [Epirubicin], in the assay with HIF-1α–NanoLuc (setting [3]), the IC50 is 0.3 µM. Also, in the assay with HIF-1α–NanoLuc (setting [4]), the Emax came out at 108%.

As for `CC[C@@H]1C(=O)N(C)c2cnc(Nc3ccc(C(=O)N[C@H]4CC[C@H](N5CCN(CC6CC6)CC5)CC4)cc3OC)nc2N1C(C)C` [Volasertib], the Emax in the assay with HIF-1α–NanoLuc (setting [5]) was 78 ± 14%. In addition, the IC50 in the assay with HIF-1α–NanoLuc (setting [6]) stood at 9.57 ± 5.6 µM.

On to `Cc1oncc1C(=O)Nc1ccc(C(F)(F)F)cc1` [Leflunomide], for which the “HRE–bla confirmatory IC50” value in assay [1] (Table S7, confirmatory screen) is given as “Inactive”. The “Viability (BLA) confirmatory IC50” value in the assay on HRE–bla ME-180 cells is on record as “Inactive”.

With `Cc1ccc(C(=O)Nc2ccc(S(=O)(=O)O)c3cc(S(=O)(=O)O)cc(S(=O)(=O)O)c23)cc1NC(=O)c1cccc(NC(=O)Nc2cccc(C(=O)Nc3cc(C(=O)Nc4ccc(S(=O)(=O)O)c5cc(S(=O)(=O)O)cc(S(=O)(=O)O)c45)ccc3C)c2)c1` [Suramin], the Emax in the assay with HIF-1α–NanoLuc (setting [5]) came out at 41 ± 7%. Moreover, the IC50 in the assay with HIF-1α–NanoLuc (setting [6]) came to 24.5 ± 3.13 µM.

In the case of `COC(=O)C1=C(C)NC(C)=C(C(=O)OCCN2CCN(C(c3ccccc3)c3ccccc3)CC2)C1c1cccc([N+](=O)[O-])c1` (centres unmarked) [Manidipine], the IC50 in the assay on HIF-1α–NanoLuc (setting [3]) worked out at 9.44 µM. Also, in the assay with HIF-1α–NanoLuc (setting [4]), the Emax is 86%.

Consider `CCOC(=O)C1=C(C)NC(C)=C(C(=O)OC)C1c1cccc([N+](=O)[O-])c1` (centres unmarked) [Nitrendipine], for which the IC50 in the assay on HIF-1α–NanoLuc (setting [3]) stood at 15 µM. Besides, in the assay with HIF-1α–NanoLuc (setting [4]), the Emax stood at 157%.

Consider `COc1cccc2c1C(=O)c1c(O)c3c(c(O)c1C2=O)C[C@@](O)(C(=O)CO)C[C@@H]3O[C@H]1C[C@H](N)[C@H](O[C@@H]2CCCCO2)[C@H](C)O1` [Pirarubicin], for which the IC50 in the assay with HIF-1α–NanoLuc (setting [3]) was determined as 11.9 µM. Besides, the Emax in the assay with HIF-1α–NanoLuc (setting [4]) is 97%.

In the case of `COCCOC(=O)C1=C(C)NC(C)=C(C(=O)OC(C)C)C1c1cccc([N+](=O)[O-])c1` (centres unmarked) [Nimodipine], the IC50 with HIF-1α–NanoLuc (setting [3]) turned out to be 15 µM. Further, the Emax with HIF-1α–NanoLuc (setting [4]) was 132%.

As to `COc1cccc2c1C(=O)c1c(O)c3c(c(O)c1C2=O)C[C@@](O)(C(=O)CO)C[C@@H]3O[C@H]1C[C@H](N2CCO[C@H](OC)C2)[C@H](O)[C@H](C)O1` [Nemorubicin], in the assay with HIF-1α–NanoLuc (setting [7]), the IC50 turned out to be 0.08 µM. Besides, the Emax in the assay on HIF-1α–NanoLuc (setting [8]) is 111%.

For the molecule `CC(C)C[C@H](NC(=O)[C@H](CCc1ccccc1)NC(=O)CN1CCOCC1)C(=O)N[C@@H](Cc1ccccc1)C(=O)N[C@@H](CC(C)C)C(=O)[C@@]1(C)CO1` [carfilzomib], the “Effect on HIF-1α–NanoLuc level / luciferase activity, in words” value with HIF-1α–NanoLuc (HCT116 reporter cells) is reported as “potently induced accumulation of HIF-1α–NanoLuc proteins”. The “Effect on HRE–bla transcriptional activity, in words” value in assay [1] was “inhibited the transcriptional activity of HRE–bla”.

Regarding `Cn1cc(C2=C(c3cn(C4CCN(Cc5ccccn5)CC4)c4ccccc34)C(=O)NC2=O)c2ccccc21` [Enzastaurin], the Emax in the assay with HIF-1α–NanoLuc (setting [9]) was determined as 39%; in the assay on HIF-1α–NanoLuc (setting [5]), 67 ± 6%. Moreover, the values for the IC50 in the assay with HIF-1α–NanoLuc (setting [10]) and with HIF-1α–NanoLuc (setting [6]) were 15 µM and 2.06 ± 3.3 µM, respectively.

For `C[C@]1(O)C[C@@H](c2nc(-c3ccc4ccc(-c5ccccc5)nc4c3)c3c(N)nccn32)C1` [OSI-906], the 50% inhibitory concentration (IC50) in the assay with HIF-1α–NanoLuc (Homo sapiens, HCT-116, HCT116 reporter cells, hypoxia, read-out: HIF-1α–NanoLuc IC50) worked out at 6.23 ± 1.64 µM.

As for `CN1CC[C@H](c2c(O)cc(O)c3c(=O)cc(-c4ccccc4Cl)oc23)[C@H](O)C1` [Flavopiridol], the IC50 in the assay on HIF-1α–NanoLuc (setting [3]) amounted to 1.06 µM. Moreover, the Emax in the assay with HIF-1α–NanoLuc (setting [4]) was 76%.

`Cn1nccc1Nc1nccc(-c2ccn([C@H](CO)c3ccc(Cl)c(F)c3)c(=O)c2)n1` [GDC-0994]: in the assay with HIF-1α–NanoLuc (setting [5]), the Emax turned out to be 63 ± 7%. Further, the IC50 with HIF-1α–NanoLuc (setting [6]) stood at 6.11 ± 1.64 µM.

For `Cc1ccc(-c2cc(C(F)(F)F)nn2-c2ccc(S(N)(=O)=O)cc2)cc1` [Celecoxib], the IC50 in the assay on HIF-1α–NanoLuc (setting [3]) is 10.6 µM. The Emax in the assay on HIF-1α–NanoLuc (setting [4]) turned out to be 43%.

In the case of `COC(=O)C1=C(C)NC(C)=C(C(=O)OCCc2ccc(N3CCN(C(c4ccccc4)c4ccccc4)CC3)cc2)C1c1cccc([N+](=O)[O-])c1` (centres unmarked) [Vatanidipine], the IC50 in the assay with HIF-1α–NanoLuc (setting [3]) was determined as 1.19 µM. The Emax in the assay with HIF-1α–NanoLuc (setting [4]) stood at 103%.

Consider `C=C(C)[C@H]1Cc2c(ccc3c2O[C@@H]2COc4cc(OC)c(OC)cc4[C@@H]2C3=O)O1` [Rotenone], for which the IC50 with HIF-1α–NanoLuc (setting [7]) was found to be 0.19 µM. Further, the Emax with HIF-1α–NanoLuc (setting [8]) worked out at 91%.

Regarding `Cc1c(O)cccc1C(=O)N[C@@H](CSc1ccccc1)[C@H](O)CN1C[C@H]2CCCC[C@H]2C[C@H]1C(=O)NC(C)(C)C` [Nelfinavir], the IC50 with HIF-1α–NanoLuc (setting [3]) came out at 21.1 µM. In addition, in the assay with HIF-1α–NanoLuc (setting [4]), the Emax was determined as 120%.

On to `Cc1ccc(NC(=O)c2ccc(CN3CCN(C)CC3)cc2)cc1Nc1nccc(-c2cccnc2)n1` [Imatinib], for which the Emax in the assay on HIF-1α–NanoLuc (setting [9]) came out at 28%.

Turning to `O=c1c(-c2ccc(O)cc2)coc2cc(O)cc(O)c12` [Genistein], the IC50 in the assay with HIF-1α–NanoLuc (setting [3]) was found to be 8.41 µM. The Emax in the assay with HIF-1α–NanoLuc (setting [4]) worked out at 65%.

Take `O=c1[nH]c(=S)[nH]c(-c2ccccc2)c1Cc1c(O)ccc2ccccc12` [Cambinol]: in the assay with HIF-1α–NanoLuc (Table S2, validation), the “Pathway inhibitors (validation) HIF-1α–NanoLuc Activity IC50” value is “Inactive”.

Regarding `COC(=O)C1=C(C)NC(C)=C(C(=O)OC(C)(C)CN(C)CCC(c2ccccc2)c2ccccc2)C1c1cccc([N+](=O)[O-])c1` (centres unmarked) [Lercanidipine], in the assay with HIF-1α–NanoLuc (setting [3]), the IC50 came out at 11.9 µM. Besides, the Emax with HIF-1α–NanoLuc (setting [4]) was found to be 63%.

As to `CC(C)C[C@H](NC(=O)[C@H](Cc1ccccc1)NC(=O)c1cnccn1)B(O)O` [bortezomib], the “Effect on HIF-1α–NanoLuc level / luciferase activity, in words” value in the assay with HIF-1α–NanoLuc (HCT116 reporter cells) is “resulted in protein accumulation and increased luciferase activity; also recorded: potently induced accumulation of HIF-1α–NanoLuc proteins”. For the same molecule, the “Effect on HRE–bla transcriptional activity, in words” value in assay [1] is “inhibited the transcriptional activity of HRE–bla”.

As to `NC1(c2ccc(-c3nc4ccn5c(=O)[nH]nc5c4cc3-c3ccccc3)cc2)CCC1` [MK-2206], the Emax with HIF-1α–NanoLuc (setting [9]) came out at 45%. Moreover, the IC50 in the assay with HIF-1α–NanoLuc (setting [10]) came out at 0.42 µM.

For `OCc1ccc(-c2nn(Cc3ccccc3)c3ccccc23)o1` [YC-1], the “Effect on HIF-1α–NanoLuc level / luciferase activity, in words” value in the assay on HIF-1α–NanoLuc (HCT116 reporter cells) is reported as “decrease in luciferase expression in a concentration response manner”.

As for `COc1cc(Nc2c(C#N)cnc3cc(OCCCN4CCN(C)CC4)c(OC)cc23)c(Cl)cc1Cl` [Bosutinib], the Emax in the assay with HIF-1α–NanoLuc (setting [9]) stood at 58%. Further, the IC50 with HIF-1α–NanoLuc (setting [10]) amounted to 11.9 µM.

`CNC(=O)c1ccccc1Sc1ccc2c(/C=C/c3ccccn3)n[nH]c2c1` [Axitinib]: the “Pathway inhibitors (primary screen) HIF-1α–NanoLuc Activity IC50” value with HIF-1α–NanoLuc (Table S2, primary screen) was “Inactive”.

Turning to `O=C(CCCCCCC(=O)Nc1ccccc1)NO` [Vorinostat], in the assay on HIF-1α–NanoLuc (setting [4]), the Emax was 51%.

Take `COc1ccc2cc3[n+](cc2c1OC)CCc1cc2c(cc1-3)OCO2` [Berberine]: in the assay on HIF-1α–NanoLuc (setting [3]), the IC50 stood at 0.94 µM. In addition, the Emax in the assay with HIF-1α–NanoLuc (setting [4]) turned out to be 116%.

Consider `CC[C@@]1(O)C(=O)OCc2c1cc1n(c2=O)Cc2c-1nc1ccccc1c2/C=N/OC(C)(C)C` [Gimatecan], for which the IC50 with HIF-1α–NanoLuc (setting [3]) was determined as 0.6 µM. Further, the Emax in the assay on HIF-1α–NanoLuc (setting [4]) and with HIF-1α–NanoLuc (setting [9]) was 108% each time.

For the molecule `COCCOC(=O)C1=C(C)NC(C)=C(C(=O)OC/C=C/c2ccccc2)C1c1cccc([N+](=O)[O-])c1` (centres unmarked) [Cilnidipine], in the assay on HIF-1α–NanoLuc (setting [3]), the IC50 was found to be 10.6 µM. Also, the Emax in the assay with HIF-1α–NanoLuc (setting [4]) was found to be 63%.

Regarding `N#Cc1c(Oc2ccc(F)c(NC(=O)Cc3cccc(C(F)(F)F)c3)c2)ccc2nc(NC(=O)C3CC3)sc12` [TAK-632], the “Pathway inhibitors (validation) HIF-1α–NanoLuc Activity Efficacy” value with HIF-1α–NanoLuc (Table S2, validation) came to 85 ± 2%. In the assay on HIF-1α–NanoLuc (setting [2]), the IC50 came out at 1.41 ± 0.23 µM.
